# Assay results taken from paper PMC7809260 (Scientific Reports, 2021).
# Counter-ions that a name gives are not always drawn. Like-named read-outs stand apart in the source and are kept apart here.
# What was measured:
# DAT [1] = biological target: T1, DAT (Homo sapiens, UniProt Q01959); test: [3H]WIN35,428 saturation binding assay
# T1 construct: host or cells: U2OS, transient PEI transfection of pcDNA3.1(+)-DAT; whole cells or membranes
# JumpIn-DAT cells [2] = test: Effect of pretreatment alone on impedance, dox-treated JumpIn-DAT cells (xCELLigence); assay type: cell-based, human; conditions: 10 µM, 1 h
# [3] = biological target: human dopamine transporter (DAT) (Homo sapiens, UniProt Q01959); test: TRACT assay, DAT inhibition in JumpIn-DAT cells (+dox); conditions: dox-treated JumpIn-DAT cells, 10 µM inhibitor compared to vehicle-pretreated cells
# U2OS-DAT cells [4] = test: Effect of pretreatment alone on impedance, U2OS-DAT cells (xCELLigence); assay type: cell-based, human; conditions: 10 µM, 1 h incubation
# DAT [5] = conditions: cited from earlier work
# DAT [6] = conditions: cited from earlier work; remark: listed apart in the source
# JumpIn-DAT cells [7] = test: cells; conditions: Homo sapiens
# [8] = tested on: non-transfected U2OS cells; test: GPCR antagonist experiment, dopamine-induced response in non-transfected U2OS cells (xCELLigence); assay type: cell-based, human; conditions: 1 µM antagonist 1 h, then 316 nM dopamine
# Experimental: Figure S1. Representative vehicle-corrected xCELLigence traces of GPCR antagonists in three cell lines. (a) Pretreatment of U2OS-DAT cells with 1 µM antagonist for 1 h. (b) […]
# vehicle, 1 µM SCH23390 or raclopride for 1 h. ( c) Pretreatment of JumpIn-DAT cells in the (1 picture or pasted object on this page, not shown here)
# JumpIn-DAT cells [9] = test: GPCR antagonist experiment, dopamine response in dox-treated JumpIn-DAT cells (xCELLigence); assay type: cell-based, human; conditions: 1 µM antagonist 1 h, then 31.6 µM dopamine
# U2OS-DAT cells [10] = test: GPCR antagonist experiment, dopamine-induced cell response in U2OS-DAT cells (xCELLigence); assay type: cell-based, human; conditions: 1 µM antagonist 1 h, then 10 µM dopamine
# Experimental: Impedance was measured overnight every 15 min.
# T1 sequence (Q01959 whole entry): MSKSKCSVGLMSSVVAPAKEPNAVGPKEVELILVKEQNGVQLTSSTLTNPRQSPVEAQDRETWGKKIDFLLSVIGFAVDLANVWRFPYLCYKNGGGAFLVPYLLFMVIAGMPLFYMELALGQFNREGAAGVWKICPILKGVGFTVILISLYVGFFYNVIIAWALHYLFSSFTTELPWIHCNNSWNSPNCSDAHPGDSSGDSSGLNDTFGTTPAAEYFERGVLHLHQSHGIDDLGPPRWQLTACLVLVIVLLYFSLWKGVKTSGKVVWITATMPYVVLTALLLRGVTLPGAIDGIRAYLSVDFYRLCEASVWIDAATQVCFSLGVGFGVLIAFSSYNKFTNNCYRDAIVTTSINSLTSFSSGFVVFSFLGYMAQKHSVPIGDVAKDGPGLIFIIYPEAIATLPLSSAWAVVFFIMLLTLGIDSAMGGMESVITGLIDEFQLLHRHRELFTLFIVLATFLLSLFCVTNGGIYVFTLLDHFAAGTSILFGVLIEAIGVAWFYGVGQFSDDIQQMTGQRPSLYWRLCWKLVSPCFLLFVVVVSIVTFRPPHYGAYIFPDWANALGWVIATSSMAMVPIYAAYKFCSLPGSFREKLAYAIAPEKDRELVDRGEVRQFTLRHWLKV
# human dopamine transporter (DAT), sequence (Q01959 whole entry): as above
smiles,measurement,setting,value
"[3H]CN1[C@H]2CC[C@@H]1[C@@H](C(=O)OC)[C@@H](c1ccc(F)cc1)C2 [[^3H]WIN35,428, [^3H]-2β-carbomethoxy-3β-(4-fluorophenyl)-tropane]",Bmax (total amount of binding sites),DAT [1]; U2OS-DAT membranes,1.6 ± 0.2 pmol/mg protein
same,specific binding,DAT [1]; U2OS-mock membranes,No specific binding
"Cl.Cl.Fc1ccc(C(OCCN2CCN(CCCc3ccccc3)CC2)c2ccc(F)cc2)cc1 [GBR12909, GBR12909 dihydrochloride]",effect of pretreatment on its own on impedance,JumpIn-DAT cells [2],did not substantially affect impedance over time
same,enhancement of the apparent potency of dopamine by DAT inhibitor,[3],twofold
same,effect of pretreatment itself on impedance,U2OS-DAT cells [4],did not substantially affect impedance
same,affinity for DAT,DAT [5],low nanomolar
same,"pIC50, MPP+-induced toxicity inhibition",DAT [6],7.0
"NCCc1ccc(O)c(O)c1 [Dopamine, dopamine hydrochloride]",EC50,"JumpIn-DAT cells [7]; 0.5 h, read-out: pEC50 ± SEM (apparent potency of dopamine), JumpIn-DAT –dox (converted), fixed pseudo-Hill slope of 1, net AUC first 30 min",7.94 µM
same,EC50,"JumpIn-DAT cells [7]; read-out: EC50 in µM, JumpIn-DAT +dox pretreated 1 h with 10 µM GBR12909, fixed pseudo-Hill slope of 1",26 µM
same,EC50,"JumpIn-DAT cells [7]; read-out: EC50 in µM, JumpIn-DAT +dox pretreated 1 h with 10 µM cocaine, fixed pseudo-Hill slope of 1",13 µM
same,EC50,"JumpIn-DAT cells [7]; read-out: EC50 in µM, JumpIn-DAT –dox, fixed pseudo-Hill slope of 1",8 µM
same,EC50,"JumpIn-DAT cells [7]; read-out: pEC50 ± SEM (apparent potency of dopamine), JumpIn-DAT +dox (1 µg/ml), vehicle-pretreated (converted), fixed pseudo-Hill slope of 1",50.1 µM
same,EC50,"JumpIn-DAT cells [7]; read-out: pEC50 ± SEM (apparent potency of dopamine), JumpIn-DAT +dox pretreated 1 h with 10 µM GBR12909 (converted), fixed pseudo-Hill slope of 1",25.1 µM
same,EC50,"JumpIn-DAT cells [7]; read-out: pEC50 ± SEM (apparent potency of dopamine), JumpIn-DAT +dox pretreated 1 h with 10 µM cocaine (converted), fixed pseudo-Hill slope of 1",12.6 µM
same,EC50,"JumpIn-DAT cells [7]; read-out: pEC50 ± SEM (variable slope), JumpIn-DAT +dox (converted), variable slope model",31.6 µM
same,EC50,"JumpIn-DAT cells [7]; read-out: pEC50 ± SEM (variable slope), JumpIn-DAT +dox + 10 µM GBR12909 (converted), variable slope model",31.6 µM
same,EC50,"JumpIn-DAT cells [7]; read-out: pEC50 ± SEM (variable slope), JumpIn-DAT +dox + 10 µM cocaine (converted), variable slope model",20 µM
CCN1CCC[C@H]1CNC(=O)c1c(O)c(Cl)cc(Cl)c1OC [raclopride],effect on dopamine-induced response,[8],not
"CN1CCc2cc(Cl)c(O)cc2[C@@H](c2ccccc2)C1 [SCH23390, SCH23390 hydrochloride]",effect on dopamine response,JumpIn-DAT cells [9],not affected
same,effect on dopamine-induced response,[8],eliminated the dopamine-induced response
same,effect on dopamine-induced cell response,U2OS-DAT cells [10],completely abolish
"COC(=O)[C@@H]1[C@H]2C[C@H]3c4[nH]c5ccccc5c4CCN3C[C@@H]2CC[C@@H]1O [yohimbine, Yohimbine hydrochloride]",effect on dopamine response,JumpIn-DAT cells [9],significantly reduced
"COC(=O)[C@H]1[C@@H](OC(=O)c2ccccc2)C[C@@H]2CC[C@H]1N2C.Cl [Cocaine, Cocaine hydrochloride]",effect of pretreatment on its own on impedance,JumpIn-DAT cells [2],did not substantially affect impedance over time
same,enhancement of the apparent potency of dopamine by DAT inhibitor,[3],threefold
